Data from publication PMC12040169 (PLOS Biology, 2025).

Test: in vitro
Conditions: human, hela cells, % viability

Row | SMILES | viability at 28.5 h, 10 µM
1 | Cc1ccc(-n2ncc3c(=O)n(CC(=O)Nc4ccccc4)cnc32)cc1C [CBK287539] | 87.3%
2 | CCCCOC(=O)c1c(N)n(-c2ccc(C(=O)O)cc2)c2nc3ccccc3nc12 [CBK265046] | 94.6%
3 | CC(C)CN1CC2(CCN(C(=O)OCc3ccccc3)CC2)c2ccccc21 [CBK022626C] | 106%
4 | Cc1ccc(S(N)(=O)=O)cc1NC(=O)c1ccc(S(=O)(=O)N(C)C)cc1 [CBK266050] | 103%
5 | c1coc(-c2cc(NC3CCCCC3)ncn2)c1 [CBK090901] | 91.2%
6 | COc1cccc(CC(=O)N2CCC[C@@H](N)[C@@H]2c2ccccc2F)c1 [CBK283455] | 84.5%
7 | CC(C)CNS(=O)(=O)c1ccc(N2CCCC2=O)cc1 [CBK304981] | 106%
8 | CN(C)CCCN1C(=O)C(O)=C(C(=O)c2ccc(F)cc2)C1c1cccnc1 (stereo not shown) [CBK264531] | 107%
9 | COc1ccccc1N1CCN(C(=O)Nc2ccc(Cl)cc2)CC1 [CBK155597] | 94.5%
10 | N#Cc1ccc(C(=O)Nc2ccc(N3CCNCC3)nc2)cc1 [CBK029435T] | 95.2%
11 | O=C(N/N=C/c1cccnc1)c1cccc(F)c1 [CBK261689] | 101%
12 | CN1C(=O)CN(C2CCCCC2)C1=O [CBK116320] | 82.3%
13 | Cc1ccc(CCC(=O)N2CCCCC2c2nc3ccccc3[nH]2)o1 (stereo not shown) [CBK282316] | 85.7%
14 | CC(=O)N1CCc2c([nH]c3c(C)cccc23)C12CCN(C/C=C\c1ccccc1)C2 (stereo not shown) [CBK040414] | 90.8%
15 | Cc1cc2c(cc3c(=O)n(CC(=O)NC4CCCC4)nc(C)n32)s1 [CBK284072] | 96.9%
16 | O=C(c1ccc(Cl)cc1)N1CCN(C(=O)c2cc(O)nc3ccccc23)CC1 [CBK296666] | 103%
17 | Cc1nn2c(c1-c1ccccc1)NC(=O)CC2C(=O)O (stereo not shown) [CBK287118] | 95.3%
18 | Cc1cc(C)n(CC2CN(CC(=O)NCc3cccs3)CCO2)n1 (stereo not shown) [CBK304902] | 109%
19 | O=C(CCSc1nc(-c2ccco2)cc(C(F)(F)F)n1)Nc1ccc2c(c1)OCO2 [CBK267627] | 104%
20 | COc1ccc(C2CNC(=O)N2C(=O)OC(C)(C)C)cc1OC1CCCC1 (stereo not shown) [CBK007281] | 93.8%
21 | O=C(Cc1c[nH]c2ccccc12)Nc1cccnc1N1CCNCC1 [CBK028265T] | 105%
22 | O=C(O)c1ccccc1-n1c(=O)c2cc3c(=O)n(-c4ccccc4C(=O)O)c(=O)c3cc2c1=O [CBK261097] | 87.5%

Row | SMILES | viability at 28.5 h, 10 µM
23 | Cc1ccc(OCc2nc(C#N)c(NCCCN3CCOCC3)o2)cc1 [CBK266423] | 112%
24 | O=c1ccc(-c2ccccc2)nn1CC1CCNCC1 [CBK284203] | 98.6%
25 | O=C(Nc1c[nH]c(=O)[nH]c1=O)c1ccc(Oc2ccc(C(=O)Nc3c[nH]c(=O)[nH]c3=O)cc2)cc1 [CBK261184] | 108%
26 | O=C(C1CCCCC1)N1CCC(n2c(=O)oc3ccccc32)CC1 [CBK284348] | 97.2%
27 | CC[C@H](Cn1ncc2ccccc2c1=O)NC(=O)CC(C)C [CBK284305] | 89.1%
28 | COC(=O)c1scc(NS(=O)(=O)c2ccc(Cl)cc2Cl)c1C(=O)OC [CBK026681] | 89.4%
29 | Cc1csc2ncc(C(=O)NCc3ccccc3)c(=O)n12 [CBK287290] | 89.3%
30 | Cc1nc(C2CCN(C(=O)c3ccnn3C)CC2)c2sccn12 [CBK285203] | 90.3%
31 | CC(=O)N1CCc2cc(-c3cc4c(C)cccn4c3)ccc21 [CBK285225] | 96%
32 | Cc1ccccc1N1CCN(C(=O)c2nn[nH]c2Nc2ccccc2F)CC1 [CBK288032] | 101%
33 | CC(=O)N1c2ccc(-c3cn4cc(C)ccc4n3)cc2CC1C (stereo not shown) [CBK285195] | 82.5%
34 | CC(=O)Nc1ccc(S(=O)(=O)N2CCN(C(=O)COc3ccc(Br)cc3)CC2)cc1 [CBK264234] | 94.1%
35 | Cc1ccccc1-c1cnc(N)c(-c2ccc(O)cc2)n1 [CBK115544] | 95%
36 | CC(NC(=O)c1ccccc1)c1nnc(SCC(=O)c2ccccc2)n1C (stereo not shown) [CBK269644] | 82.3%
37 | CC(C)CC1(C(CCN2C(=O)c3ccccc3C2=O)C(=O)NO)CCN(Cc2cccc(F)c2)C1=O (stereo not shown) [CBK013032] | 83.8%
38 | O=C(Cn1cnc2c(Cl)cc(Cl)cc2c1=O)N1CCCCCC1 [CBK305874] | 92%
39 | O=C(c1ccccc1Br)N1CCCCC1 [CBK028504] | 87.6%
40 | Cc1cc(NS(=O)(=O)c2ccc(NC(=O)/C=C/c3ccc(C)o3)cc2)nc(C)n1 [CBK265474] | 96.5%
41 | O=[N+]([O-])c1ccc(Cc2cc[n+](-c3nc4ccccc4nc3[N-]S(=O)(=O)c3ccc([N+](=O)[O-])cc3)cc2)cc1 [CBK301201] | 84.3%
42 | O=C(N/N=C/c1cc(O)c(Br)cc1Br)c1ccncc1 [CBK262297] | 76.8%
43 | COc1ccc(Nc2cc(-c3ccc(CNC(=O)OC(C)(C)C)cc3)ncn2)c(OC)c1 [CBK090757] | 90.8%
44 | COC(=O)C(CC(=O)c1ccc(Br)cc1)n1cccn1 (stereo not shown) [CBK269338] | 104%

Row | SMILES | viability at 28.5 h, 10 µM
45 | Cc1ccc(OCc2cc(-c3ccco3)on2)c([N+](=O)[O-])n1 [CBK233261] | 98.8%
46 | CNC(=O)C1(Cc2ccc(-c3ccccc3)cc2)CCN(C(=O)C2CCCCC2)CC1 [CBK285762] | 113%
47 | CC1CCN(C(=O)C2CCCCC2C(=O)O)CC1 (stereo not shown) [CBK028392] | 107%
48 | CC(C)(C)OC(=O)N[C@@H]1C(=O)OC(C(O)CO)[C@@H]1O (stereo partly shown) [CBK008178] | 118%
49 | O=C(O)C(CCCN1CCCC1)(c1ccccc1)c1ccccc1 [CBK022695G] | 81.7%
50 | Cc1oc(S(=O)(=O)N(C)C)cc1C(=O)O [CBK113681] | 98.1%
51 | OCCOCCN1CCN(C(S)=Nc2ccccc2)CC1 [CBK018046] | 84.7%
52 | Cc1ccc(NC(=O)COC(=O)CCc2c[nH]c(O)n2)cc1 [CBK265562] | 89.9%
53 | CS(=O)(=O)Nc1cccc2cc[nH]c12 [CBK159509] | 110%
54 | O=C(O)c1cccc(C(=O)c2cccc(C(=O)O)c2)c1 [CBK263933] | 99.1%
55 | O=C(c1ccc(F)cc1)C1CCN(Cc2ccc3ccccc3c2)CC1 [CBK149122] | 79.9%
56 | CC(=O)N1CCC2(C/C=C/C[C@H]3CN(C(=O)Cc4cccc(F)c4)CC[C@H]3NC(=O)CNC2=O)CC1 [CBK292103] | 93.6%
57 | Cc1cc(S(=O)(=O)NC2CCCCC2)ccc1OCC(=O)O [CBK267832] | 104%
58 | Cc1cc(C)nc(Nc2noc(-c3ccccc3)n2)n1 [CBK269971] | 94.5%
59 | CCN(CC)C(=O)C1CCCN(C(=O)NCCCN2CCN(C)CC2)C1 (stereo not shown) [CBK156115] | 89.7%
60 | COc1cccc(C2SCC(=O)Nc3[nH]nc(C)c32)c1 (stereo not shown) [CBK287981] | 78.2%
61 | Cc1nnc2n1CCN(CC1CCCCO1)C2 (stereo not shown) [CBK304267] | 105%
62 | COc1ccc(S(=O)(=O)Nc2ccncc2)cc1N(C)S(=O)(=O)c1ccccc1 [CBK267179] | 103%
63 | O=C(c1ccccc1)C1(CO)COCc2nccn21 (stereo not shown) [CBK009980] | 88.7%
64 | CCOc1ccc(-c2cncc(N3CCC(C(=O)O)CC3)n2)cc1 [CBK065870] | 97.2%
